# Results taken from patent US7947664B2, “Angiotensin II receptor antagonists” (Merck Sharp & Dohme Corp., priority 2008, dated 2011).
# Test system: isolated rabbit thoracic aorta preparations
# Assay: Vessel relaxation in isolated rabbit thoracic aorta preparations
# Details: Oryctolagus cuniculus; in vitro, rabbit aortic rings precontracted with noradrenaline (1 μM), functional endothelium
# Procedure: The ability of the compounds to induce vasorelaxation was tested in vitro in isolated rabbit thoracic aorta preparations (Wanstall J. C. et al., Br. J. Pharmacol., 134:463-472, 2001). Male New Zealand rabbits were anaesthetized with thiopental-Na (50 mg/kg, iv), sacrificed by exsanguinations and then the thorax was opened and the aorta dissected. Aortic ring preparations (4 mm in length) were set up in physiological salt solution (PSS) at 37° C. in small organ chambers (5 ml). The composition of PSS was (mM): NaCl 130, NaHCO3 14.9, KH2PO4 1.2, MgSO4 1.2, HEPES 10, CaCl2, ascorbic acid […] and glucose 1.1 (95% O2/5% CO2; pH 7.4). Each ring was mounted under 2 g passive tension. Isometric tension was recorded with a Grass transducer (Grass FT03) attached to a BIOPAC MP150 System. Preparations were allowed to equilibrate for 1 h, and then contracted submaximally with noradrenaline (NA, 1 μM) and, when the contraction was stable, acetylcholine (ACh, 10 μM) was added. A relaxant response to ACh indicated the presence of a functional endothelium. […] When a stable precontraction was reached, a cumulative concentration-response curve to either of the vasorelaxant agents was obtained in the presence of a functional endothelium. Each arterial ring was exposed to only one combination of inhibitor and vasorelaxant. […]
# Examples 32 and 48 were evaluated for vessel relaxation.
row,EC50,Structure (SMILES)
1,> 100 µM,"CCOc1nc2cccc(C(=O)OC(C)OC(=O)O[C@H](C)CCCCO/N=[N+](\[O-])N(C)C(C)(C)C)c2n1Cc1ccc(-c2ccccc2-c2nnn[nH]2)cc1 (stereo partly drawn) [Example 48, O^2-[(5R)-5-{[(1-{[(2-ethoxy-1-{[2′-(1H-tetrazol-5-yl)biphenyl-4-yl]methyl}-1H-benzimidazol-7-yl)carbonyl]oxy}ethoxy)carbonyl]oxy}hexyl] 1-(N-tert-butylmethylamino)diazen-1-ium-1,2-diolate]"
2,46 µM,"CCOc1nc2cccc(C(=O)OC(C)OC(=O)OCCC(C)CCO/N=[N+](\[O-])N(C)C(C)(C)C)c2n1Cc1ccc(-c2ccccc2-c2nnn[nH]2)cc1 (centres unmarked) [Example 32, O^2-(5-{[(1-{[(2-ethoxy-1-{[2′-(1H-tetrazol-5-yl)biphenyl-4-yl]methyl}-1H-benzimidazol-7-yl)carbonyl]oxy}ethoxy)carbonyl]oxy}-3-methylpentyl) 1-(N-tert-butylmethylamino)diazen-1-ium-1,2-diolate]"
